One experiment deals with T1, human PPARδ (Homo sapiens, UniProt Q03181).
T1 construct: purchased ThermoFisher Scientific PV4685
T1 sequence (Q03181 211-439 limits assumed): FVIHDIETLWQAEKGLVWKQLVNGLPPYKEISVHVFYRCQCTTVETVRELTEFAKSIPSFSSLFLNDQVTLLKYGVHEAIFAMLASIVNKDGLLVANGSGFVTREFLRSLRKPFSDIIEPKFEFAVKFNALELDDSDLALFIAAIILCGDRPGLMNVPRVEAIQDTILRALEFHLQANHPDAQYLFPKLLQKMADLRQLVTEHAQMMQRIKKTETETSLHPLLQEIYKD
Briefly: LanthaScreen TR-FRET coactivator recruitment assay, PPARδ LBD (C33 peptide). Type of experiment: biochemical. The note with it: for Emax: read-out: Emax, maximum efficacy, PPARδ; for EC50: TR-FRET coactivator recruitment, human PPARδ LBD, read-out: EC50, half maximal effective concentration, PPARδ. (TR-FRET usually uses a lanthanide donor and a delayed reading to cut background.)

The target in a further experiment is T2, human PPARα (Homo sapiens, UniProt Q07869).
T2 construct: purchased ThermoFisher Scientific PV4684
T2 sequence (Q07869 239-466 limits assumed): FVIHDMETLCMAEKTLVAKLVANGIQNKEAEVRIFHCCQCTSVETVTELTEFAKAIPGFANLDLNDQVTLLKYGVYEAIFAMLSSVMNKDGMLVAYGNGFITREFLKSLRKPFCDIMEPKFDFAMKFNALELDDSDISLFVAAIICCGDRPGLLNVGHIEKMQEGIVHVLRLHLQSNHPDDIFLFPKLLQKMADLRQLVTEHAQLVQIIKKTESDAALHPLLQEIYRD
Briefly: LanthaScreen TR-FRET coactivator recruitment assay, PPARα LBD (PGC1α peptide). In kind it is biochemical. The note with it: for Emax: read-out: Emax, maximum efficacy, PPARα; for EC50: TR-FRET coactivator recruitment, human PPARα LBD, read-out: EC50, half maximal effective concentration, PPARα.

For a further experiment, the target named is PPARγ. Also on record: method as in PMID 32909075. The conditions noted are these: lowest Kd among nine lipids tested in vitro; cited from earlier work.
In another experiment the test system is Angptl4. The experiment is described as follows: Angptl4 mRNA expression (qPCR) in 3T3-L1 preadipocytes, without and with PPAR antagonists. In kind it is cell-based, murine. The note with it: agonist and antagonist both 10 μM, 3T3-L1 cells.
Setting [1] is: % relative to agonist control GW501516 at the highest concentration, 95% confidence intervals in parentheses.
[2] abbreviates: 95% confidence intervals in parentheses.
Where [3] appears, read: % relative to agonist control GW7647 at the highest concentration, 95% confidence intervals in parentheses.

Results on 18 compounds are retold here after article PMC12605127, “Cyclopropane xenolipids resemble monounsaturated fatty acids and modulate peroxisome proliferator-activated receptors” (Journal of Lipid Research, 2025).

Like-named read-outs stand apart in the source and are kept apart here.

As for `CCCCCCCCCCCCCCC(=O)O` [C15, Pentadecanoic acid], the Emax on human PPARδ (setting [1]) worked out at 23.7%; on human PPARα (setting [3]), 36.8%. The EC50 on human PPARδ (setting [2]) turned out to be 25.6 µM; at human PPARα (setting [2]), 9.6 µM.
With `CCC/C=C\CCCCCCCCCC(=O)O` [C15:1 cis-11, (11Z)-pentadec-11-enoic acid], the Emax at human PPARδ (setting [1]) stood at 18.9%; on human PPARα (setting [3]), 26.6%. The EC50 on human PPARδ (setting [2]) amounted to 25.7 µM; on human PPARα (setting [2]), 12.8 µM.
As for `CCC[C@@H]1C[C@@H]1CCCCCCCCCC(=O)O` [C15Δ1 cis-11, (11S,12R)-11,12-methylenepentadecanoic acid], the Emax on human PPARδ (setting [1]) worked out at 14.9%; at human PPARα (setting [3]), 26.3%. Also, the results for the EC50 at human PPARδ (setting [2]) and at human PPARα (setting [2]) were 25.6 µM and 14.1 µM, respectively.
As for `CCCCCCCCCCCCCCCC(=O)O` [C16, Hexadecanoic acid], at human PPARα (setting [3]), the Emax came out at 52.6%. Also, the EC50 at human PPARα (setting [2]) is 5.43 µM.
`CCCCCC/C=C\CCCCCCCC(=O)O` [C16:1 cis-9, (9Z)-hexadec-9-enoic acid]: the Emax was 39.5% on human PPARδ (setting [1]) and 59.1% at human PPARα (setting [3]). Besides, the EC50 was found to be 26.4 µM at human PPARδ (setting [2]) and 2.13 µM on human PPARα (setting [2]).
As for `CCCCCC[C@@H]1C[C@@H]1CCCCCCCC(=O)O` [C16Δ1 cis-9, (9S,10R)-9,10-methylenehexadecanoic acid], the Emax at human PPARδ (setting [1]) worked out at 58.1%; on human PPARα (setting [3]), 62.3%. Moreover, the results for the EC50 at human PPARδ (setting [2]) and on human PPARα (setting [2]) were 22 µM and 12.2 µM, respectively.
Consider `CCCCCCCCCCCCCCCCC(=O)O` [C17, Heptadecanoic acid], for which the Emax was 41.3% at human PPARδ (setting [1]) and 58.9% on human PPARα (setting [3]). Further, the EC50 on human PPARδ (setting [2]) worked out at 22.3 µM; at human PPARα (setting [2]) it was 5.04 µM.
For `CCC/C=C\CCCCCCCCCCCC(=O)O` [C17:1 cis-13, (13Z)-heptadec-13-enoic acid], the results for the Emax on human PPARδ (setting [1]) and on human PPARα (setting [3]) were 30.6% and 70%, respectively. For the same compound, the EC50 on human PPARδ (setting [2]) was determined as 17.8 µM; on human PPARα (setting [2]), 4.7 µM. Further, on human PPARα (setting [3]), the “Emax, maximum efficacy, PPARα” value is on record as 69.86 (43, 96.7) a %.
Turning to `CCC[C@@H]1C[C@@H]1CCCCCCCCCCCC(=O)O` [C17Δ1 cis-13, (13S,14R)-13,14-methyleneheptadecanoic acid], the figures for the Emax at human PPARδ (setting [1]) and on human PPARα (setting [3]) were 37.1% and 65%, respectively. Further, the EC50 at human PPARδ (setting [2]) was determined as 26.8 µM; on human PPARα (setting [2]), 4.12 µM. On human PPARα (setting [3]), the “Emax, maximum efficacy, PPARα” value is reported as 65.01 (52.5, 77.5) a %.
For the compound `CCCCCCCCCCCCCCCCCC(=O)O` [C18, Octadecanoic acid], the Emax on human PPARα (setting [3]) is 55.9%. In addition, the EC50 on human PPARα (setting [2]) worked out at 6.37 µM.
Consider `CCCCCCCC/C=C\CCCCCCCC(=O)O` [C18:1 cis-9, (9Z)-octadec-9-enoic acid], for which the EC50 on human PPARδ (setting [2]) was determined as 18.5 µM; at human PPARα (setting [2]), 0.91 µM. The Emax on human PPARδ amounted to 51.9%; on human PPARα, 52%.
For `CCCCCC/C=C\CCCCCCCCCC(=O)O` [C18:1 cis-11, (11Z)-octadec-11-enoic acid], the Emax is 43.5% on human PPARδ (setting [1]) and 45.2% on human PPARα (setting [3]). Moreover, the EC50 at human PPARδ (setting [2]) was 22 µM; at human PPARα (setting [2]), 3.5 µM.
As for `CCCCCCCC[C@@H]1C[C@@H]1CCCCCCCC(=O)O` [C18Δ1 cis-9, (9S,10R)-9,10-methyleneoctadecanoic acid], the “Emax, maximum efficacy, PPARδ” value on human PPARδ (setting [1]) is 73.56 (65.9, 81.2) b %. Also, the Emax at human PPARδ (setting [1]) is approximately 74%; on human PPARα (setting [3]), 51.4%. Also, the EC50 at human PPARδ (setting [2]) stood at 27.1 µM; on human PPARα (setting [2]), 5.23 µM.
As for `CCCCCC[C@@H]1C[C@@H]1CCCCCCCCCC(=O)O` [C18Δ1 cis-11, (11S,12R)-11,12-methyleneoctadecanoic acid], the “Emax, maximum efficacy, PPARδ” value on human PPARδ (setting [1]) was 57.03 (52.5, 61.6) a %. In addition, the figures for the Emax at human PPARδ (setting [1]) and at human PPARα (setting [3]) were 57% and 54.7%, respectively. For the same compound, the EC50 at human PPARδ (setting [2]) was 25.8 µM; on human PPARα (setting [2]) it was 7.65 µM. On PPARγ, the Kd is approximately 100 µM.
With `O=C(NCCS(=O)(=O)c1ccc(C(F)(F)F)cn1)c1ccc(Cl)cc1` [GSK3787], in the experiment on Angptl4, the “Reduction of PPAR agonist-mediated Angptl4 expression by the antagonist” value (shortened to “Reduction”) is reported as approximately 50%.
In the case of `CCC(=O)NC[C@H](Cc1ccc(OCCc2nc(-c3ccccc3)oc2C)cc1)N/C(C)=C\C(=O)c1ccc(C(F)(F)F)cc1` [GW6471], the “Reduction” value in the experiment with Angptl4 is “did not inhibit”.
As to `CC(C)(Sc1ccc(CCN(CCCCC2CCCCC2)C(=O)NC2CCCCC2)cc1)C(=O)O` [GW7647], the Emax at human PPARα (setting [3]) was 86.6%.
Regarding `O=C(Nc1ccncc1)c1cc([N+](=O)[O-])ccc1Cl` [T0070907], in the experiment on Angptl4, the “Reduction” value was approximately 50%.

By Emax is commonly meant the maximal effect, on the per cent scale that the assay sets. The Kd is the concentration at which binding is half-saturated.
